The structures appear in SMILES notation.

This note sets out measurements from patent US12441726B2, “Compounds and uses thereof” (Foghorn Therapeutics Inc., priority 2020, dated 2025).

For data set [1], the system named is Uveal melanoma cell lines (92-1, MP41, MP38, MP46), hematologic cancer and other cancer cell lines. As to the kind of experiment: Growth of uveal melanoma, hematological and other cancer cell lines, day 3 and day 7 (Cell-titer glo, GI50), Compound A. The data set is classed as cell-based. Particulars: FIG. 1. The protocol:
(§1) Procedure: Uveal melanoma cell lines (92-1, MP41, MP38, MP46), prostate cancer cell lines (LNCAP), lung cancer cell lines (NCI-H1299), and immortalized embryonic kidney lines (HEK293T) were plated into 96 well plates with growth media (see Table 5). […] Cells were incubated at 37 degrees Celsius for 3 days. After three days of treatment, the media was removed from the cells and 30 microliters of TrypLE (Gibco) was added to cells for 10 minutes. Cells were detached from the plates and resuspended with the addition of 170 microliters of growth media. Cells from two DMSO-treated control wells were counted, and the initial number of cells plated at the start of the experiment, were re-plated into fresh-compound containing plates for an additional four days at 37 degrees Celsius. At day 7, cells were harvested as described above. On day 3 and day 7, relative cell growth was measured by the addition of Cell-titer glo (Promega) and luminescence was measured on an Envision plate reader (Perkin Elmer). […] At the time of cell splitting on days […], cells were split into new 96 well plates, and fresh compound was added four hours after re-plating.

Data set [2] deals with Uveal melanoma cell lines, 92-1 or MP41. As to the kind of experiment: Comparison to clinical PKC and MEK inhibitors in uveal melanoma cell lines, 3-day growth (Compound A). The data set is classed as cell-based. The conditions noted are these: FIG. 2A and 2B. The protocol: Procedure: Uveal melanoma cell lines, 92-1 or MP41, were plated in 96 well plates in the presence of growth media (see Table 26). […] Cells were incubated at 37 degrees Celsius for 3 days. After three days of treatment, cell growth was measured with Cell-titer glow (Promega), and luminescence was read on an Envision plate reader (Perkin Elmer).

Data set [3] concerns PKC inhibitor (PKCi)-resistant MP41 uveal melanoma cells. The data set is described as follows: 7-day growth inhibition assay, PKC inhibitor-resistant cells. The format is cell-based. The conditions noted are these: 7-day assay. As to the method:
as §1
(§2) Procedure: MP41 uveal melanoma cells were made resistant to the PKC inhibitor (LXS196; MedChemExpress), by long-term culture in growth media (see Table 27) containing increasing concentrations of the compound, up to 1 micromolar.

For data set [4], the system named is Uveal melanoma cell lines, 92-1 or MP41. As to the kind of experiment: Comparison to clinical PKC and MEK inhibitors in uveal melanoma cell lines, 3-day growth (Compound B). The format is cell-based. Particulars: FIG. 6A and 6B. The protocol:
Procedure: Uveal melanoma cell lines, 92-1 or MP41, were plated in 96 well plates in the presence of growth media (see Table 27). […] Cells were incubated at 37° C. for 3 days. After three days of treatment, cell growth was measured with Cell-titer glow (Promega), and luminescence was read on an Envision plate reader (Perkin Elmer).

In the next data set the test system is parental MP41 cells. As to the kind of experiment: 7-day growth inhibition assay, parental cells. The conditions noted are these: 7-day assay; FIG. 7B. The data set is classed as cell-based. The protocol: as §1, §2
For data set [5], the system named is Uveal melanoma cell lines (92-1, MP41, MP38, MP46) and Non-small cell lung cancer cells (NCIH1299). As to the kind of experiment: Growth of uveal melanoma and non-small cell lung cancer cell lines, 3 days (Cell-titer glow). The data set is classed as cell-based. Particulars: 0 to 10 micromolar, FIG. 5. As to the method:
Procedure: Uveal melanoma cell lines (92-1, MP41, MP38, MP46) and Non-small cell lung cancer cells (NCIH1299) were plated into 96 well plates with growth media (see Table 27). BRG1/BRM ATPase inhibitor, compound 67, was dissolved in DMSO and added to the cells in a concentration gradient from 0 to 10 micromolar at the time of plating. Cells were incubated at 37° C. for 3 days. After three days of treatment, cell growth was measured with Cell-titer glow (Promega), and luminescence was read on an Envision plate reader (Perkin Elmer).

A short description of data set [6]: Body weight / tolerability in tumor-bearing mice. The data set is classed as in vivo. The conditions noted are these: all treatments, once daily oral gavage, 3 weeks; FIG. 8C. As to the method: Procedure: Nude mice (Envigo) were engrafted subcutaneously in the axillary region with 5×10^6 92-1 uveal melanoma cells in 50% Matrigel. Tumors were grown to a mean of ˜200 mm^3, at which point mice were grouped and dosing was initiated. […] Tumor volumes and body weights were measured over the course of 3 weeks, and doses were adjusted by body weight to achieve the proper dose in terms of mg/kg. At this time, animals were sacrificed, and tumors were dissected and imaged.

The target of the next data set is BRM (Homo sapiens, UniProt P51531). As to the kind of experiment: ATPase catalytic activity assay (ADP-Glo), BRM. Particulars: 30 nM BRM, 400 μM ATP; for IC50: BRM ATPase: IC50 (uM).
Chain of BRM (P51531 whole entry): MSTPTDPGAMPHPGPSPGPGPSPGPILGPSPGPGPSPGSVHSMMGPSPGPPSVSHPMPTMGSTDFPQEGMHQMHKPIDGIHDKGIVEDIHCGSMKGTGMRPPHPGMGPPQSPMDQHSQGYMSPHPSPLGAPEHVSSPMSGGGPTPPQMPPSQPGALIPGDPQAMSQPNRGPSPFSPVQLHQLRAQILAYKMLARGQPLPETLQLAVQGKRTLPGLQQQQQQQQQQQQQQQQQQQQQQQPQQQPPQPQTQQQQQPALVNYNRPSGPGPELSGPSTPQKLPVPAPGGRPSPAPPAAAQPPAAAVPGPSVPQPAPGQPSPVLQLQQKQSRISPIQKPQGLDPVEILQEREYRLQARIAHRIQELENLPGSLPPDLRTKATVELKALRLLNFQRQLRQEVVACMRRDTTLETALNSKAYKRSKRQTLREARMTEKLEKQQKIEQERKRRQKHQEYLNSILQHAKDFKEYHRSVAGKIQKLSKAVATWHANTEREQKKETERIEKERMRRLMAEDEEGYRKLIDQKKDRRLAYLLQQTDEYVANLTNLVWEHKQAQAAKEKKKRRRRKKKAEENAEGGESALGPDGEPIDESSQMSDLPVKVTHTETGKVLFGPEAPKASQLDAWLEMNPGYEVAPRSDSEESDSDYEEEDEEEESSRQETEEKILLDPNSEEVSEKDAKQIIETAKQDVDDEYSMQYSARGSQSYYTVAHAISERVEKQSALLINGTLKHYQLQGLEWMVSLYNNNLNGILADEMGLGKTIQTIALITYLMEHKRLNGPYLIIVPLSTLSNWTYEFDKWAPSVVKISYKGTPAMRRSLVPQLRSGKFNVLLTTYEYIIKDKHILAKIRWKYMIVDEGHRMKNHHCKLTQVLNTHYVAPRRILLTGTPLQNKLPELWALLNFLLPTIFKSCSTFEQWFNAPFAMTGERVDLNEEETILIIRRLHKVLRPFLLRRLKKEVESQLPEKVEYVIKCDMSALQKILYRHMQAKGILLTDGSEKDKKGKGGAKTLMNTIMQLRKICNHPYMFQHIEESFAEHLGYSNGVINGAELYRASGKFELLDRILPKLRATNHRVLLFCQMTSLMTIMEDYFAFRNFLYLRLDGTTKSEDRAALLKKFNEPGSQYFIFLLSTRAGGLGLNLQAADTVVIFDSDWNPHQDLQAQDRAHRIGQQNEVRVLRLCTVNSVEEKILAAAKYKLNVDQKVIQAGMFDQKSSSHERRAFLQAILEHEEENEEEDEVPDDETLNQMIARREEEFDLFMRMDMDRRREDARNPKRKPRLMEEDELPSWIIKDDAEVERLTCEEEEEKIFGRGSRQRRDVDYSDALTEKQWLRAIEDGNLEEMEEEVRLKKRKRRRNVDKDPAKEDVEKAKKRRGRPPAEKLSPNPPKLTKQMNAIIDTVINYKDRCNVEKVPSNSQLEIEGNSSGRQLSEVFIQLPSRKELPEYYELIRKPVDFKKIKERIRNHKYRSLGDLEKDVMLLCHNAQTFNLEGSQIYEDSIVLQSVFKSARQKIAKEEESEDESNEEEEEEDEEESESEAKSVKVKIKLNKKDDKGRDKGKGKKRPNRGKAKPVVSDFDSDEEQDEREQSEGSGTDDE
In the next data set the target is BRG-1 (Homo sapiens, UniProt P51532). The data set is described as follows: ATPase catalytic activity assay (ADP-Glo), BRG-1. Particulars: for Emax: 1 h, read-out: BRG1 Max % Inhibition, ADP-Glo, 30 nM BRG-1, 400 μM ATP.
Chain of BRG-1 (P51532 whole entry): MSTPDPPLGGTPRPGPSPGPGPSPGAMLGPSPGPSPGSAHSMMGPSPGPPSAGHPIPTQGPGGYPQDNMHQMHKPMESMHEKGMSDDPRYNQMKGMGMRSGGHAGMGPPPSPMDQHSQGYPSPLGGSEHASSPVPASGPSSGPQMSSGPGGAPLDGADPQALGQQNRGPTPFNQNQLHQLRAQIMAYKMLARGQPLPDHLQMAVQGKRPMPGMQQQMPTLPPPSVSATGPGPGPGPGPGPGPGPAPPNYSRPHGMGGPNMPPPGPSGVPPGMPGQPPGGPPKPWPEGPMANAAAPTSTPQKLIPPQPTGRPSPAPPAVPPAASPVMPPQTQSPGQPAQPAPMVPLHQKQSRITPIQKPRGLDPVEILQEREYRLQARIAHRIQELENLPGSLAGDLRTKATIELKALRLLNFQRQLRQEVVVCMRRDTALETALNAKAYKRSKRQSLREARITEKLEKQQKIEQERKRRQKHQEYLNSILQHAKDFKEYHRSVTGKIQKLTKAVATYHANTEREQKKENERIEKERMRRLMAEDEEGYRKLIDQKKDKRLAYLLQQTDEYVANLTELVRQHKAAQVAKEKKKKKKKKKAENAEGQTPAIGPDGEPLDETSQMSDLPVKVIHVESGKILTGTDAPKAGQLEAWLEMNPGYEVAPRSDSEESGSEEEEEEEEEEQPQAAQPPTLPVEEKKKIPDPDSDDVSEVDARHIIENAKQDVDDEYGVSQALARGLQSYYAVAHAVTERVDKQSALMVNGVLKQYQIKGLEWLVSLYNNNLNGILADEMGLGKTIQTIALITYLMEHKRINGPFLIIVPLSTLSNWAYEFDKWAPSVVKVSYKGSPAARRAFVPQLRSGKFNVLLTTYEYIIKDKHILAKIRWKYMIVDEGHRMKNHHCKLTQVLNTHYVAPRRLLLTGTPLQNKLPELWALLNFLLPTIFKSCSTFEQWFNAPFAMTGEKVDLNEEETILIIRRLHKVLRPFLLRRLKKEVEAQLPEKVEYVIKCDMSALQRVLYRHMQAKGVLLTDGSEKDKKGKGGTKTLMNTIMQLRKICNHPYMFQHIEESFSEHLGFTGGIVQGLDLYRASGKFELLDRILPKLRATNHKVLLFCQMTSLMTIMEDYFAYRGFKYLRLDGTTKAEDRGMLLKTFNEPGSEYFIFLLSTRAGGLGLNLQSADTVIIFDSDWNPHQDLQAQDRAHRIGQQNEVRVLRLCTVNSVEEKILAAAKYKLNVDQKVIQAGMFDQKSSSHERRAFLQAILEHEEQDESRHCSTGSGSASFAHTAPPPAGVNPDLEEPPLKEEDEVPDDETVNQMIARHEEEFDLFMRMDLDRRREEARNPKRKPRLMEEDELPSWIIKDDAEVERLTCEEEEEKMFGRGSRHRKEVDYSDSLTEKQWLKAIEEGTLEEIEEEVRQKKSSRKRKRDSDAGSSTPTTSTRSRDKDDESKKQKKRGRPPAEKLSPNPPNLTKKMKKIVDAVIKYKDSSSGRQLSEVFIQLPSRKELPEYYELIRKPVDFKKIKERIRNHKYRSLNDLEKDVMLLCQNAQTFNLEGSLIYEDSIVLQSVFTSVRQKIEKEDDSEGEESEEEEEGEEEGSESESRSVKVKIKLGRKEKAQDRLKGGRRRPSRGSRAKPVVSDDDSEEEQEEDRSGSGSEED

Procedure for BRG-1: The ATPase catalytic activity of BRM or BRG-1 was measured by an in vitro biochemical assay using ADP-Glo™ (Promega, V9102). The ADP-Glo™ kinase assay is performed in two steps once the reaction is complete. The first step is to deplete any unconsumed ATP in the reaction. The second step is to convert the reaction product ADP to ATP, which will be utilized by the luciferase to generate luminesce and be detected by a luminescence reader, such as Envision.
Then following addition of 5 μL of ADP-Glo™ Reagent provided in the kit, the reaction incubates at room temperature for 40 minutes. Then 10 μL of Kinase Detection Reagent provided in the kit is added to convert ADP to ATP, and the reaction incubates at room temperature for 60 minutes. Finally, luminescence measurement is collected with a plate-reading luminometer, such as Envision.

Take `CSCC[C@H](NC(=O)c1ccc(N)cc1)C(=O)Nc1nc(-c2cccc(-c3ccncc3)c2)cs1` [Compound A]: the “sensitivity of cell lines to BRG1/BRM inhibition (growth)” value in data set [1] (uveal melanoma and hematologic cancer cell lines vs other tested cell lines, 0 to 10 micromolar) was “more sensitive to BRG1/BRM inhibition than the other tested cell lines”. Besides, the “duration of growth inhibition” value in [1] (uveal melanoma and hematologic cancer cell lines) is listed as “maintained through day 7”. In data set [2] (3 days, 0 to 10 micromolar), the “growth inhibition compared to clinical PKC (LXS196) and MEK (Selumetinib) inhibitors” value was “comparable growth inhibition of uveal melanoma cells as the clinical PKC and MEK inhibitors”. Besides, the “onset of inhibition compared to clinical PKC and MEK inhibitors” value in data set [2] was “faster onset of inhibition than the clinical PKC and MEK inhibitors”.
`CC1(N)CCN(c2cccnc2NC(=O)c2nc(-c3ncccc3C(F)(F)F)cnc2N)CC1` [LXS196, reference compound]: the “tolerated concentration for growth, PKCi-resistant vs parental cells” value in [3] (FIG. 7A) is reported as “could tolerate growth at higher concentrations of LXS196 than could the parental MP41 cell line”.
On to `CSCC[C@H](NC(=O)c1ccn(S(C)(=O)=O)c1)C(=O)Nc1nc(-c2cccc(-c3ccncc3)c2)cs1` [Compound B, (S)-1-(methylsulfonyl)-N-(4-(methylthio)-1-oxo-1-((4-(3-(pyridin-4-yl)phenyl)thiazol-2-yl)amino)butan-2-yl)-1H-pyrrole-3-carboxamide], for which the “growth inhibition compared to clinical PKC (LXS196) and MEK (Selumetinib) inhibitors” value in [4] (3 days, 0 to 10 micromolar) was “more potent effects on growth inhibition of uveal melanoma cells as compared to the clinical PKC and MEK inhibitors”. Besides, the “onset of growth inhibition compared to clinical PKC and MEK inhibitors” value in [4] is “faster onset of growth inhibition than the clinical PKC and MEK inhibitors”. In addition, the “growth inhibition of parental cell line” value in the data set on parental MP41 cells was “strong growth inhibition”. Moreover, the “growth inhibition in the uveal melanoma cell lines” value in data set [5] is “potent growth inhibition”. Also, in [3] (FIG. 7B), the “growth inhibition of PKCi-resistant cell line” value was “strong growth inhibition” and the “sensitivity of PKCi-resistant cells relative to parental MP41 cells” value was “more sensitive to Compound B than were the parental MP41 cells”.
As for `C[C@@H]1CN(c2cccc(-c3csc(NC(=O)CNC(=O)c4ccn(C(C)(C)C)c4)n3)n2)C[C@H](C)O1` [Compound C, 1-(tert-butyl)-N-(2-((4-(6-(cis-2,6-dimethylmorpholino)pyridin-2-yl)thiazol-2-yl)amino)-2-oxoethyl)-1H-pyrrole-3-carboxamide], in [6], the “tolerability / body weight change” value was “well tolerated with no body weight loss observed”.
In the case of `CN1CCC(C(=O)N2CCN(c3cccc(-c4ccc5cnc(CNC(=O)c6ccc7c(c6)[C@](C)(C#N)COC7)cc5n4)n3)CC2)CC1` [Compound 287], at BRM, the “BRM Max % Inhibition” value is listed as 99% and the IC50 is less than 0.1 µM. For the same compound, at BRG-1, the IC50 was in the range of 500 to 1000 nM and the Emax was 99%.
Turning to `[2H]C1([2H])OC([2H])([2H])[C@@](C)(F)c2cc(C(=O)NCc3cc4nc(-c5cncc(C6CC6)n5)ccc4cn3)cnc21` [Compound 176], at BRM, the “BRM Max % Inhibition” value was determined as 98% and the IC50 is less than 0.1 µM. Moreover, at BRG-1, the 50% inhibitory concentration (IC50) is 500 to 1000 nM and the Emax is 83%.
Turning to `C[C@@]1(O)COCc2ccc(C(=O)NCc3cc4nc(-c5ccccc5)ccc4cn3)cc21` [Compound 89], at BRM, the “BRM Max % Inhibition” value amounted to 76% and the IC50 is greater than 1 µM. In addition, at BRG-1, the IC50 is greater than 1000 nM and the Emax was 15%.
With `C[C@@]1(C#N)COCc2ccc(C(=O)NCc3cc4cc(-c5ccnc(C6CC6)n5)cnc4cn3)cc21` [Compound 337], on BRM, the “BRM Max % Inhibition” value was 99% and the IC50 is 0.1 to 0.5 µM. On BRG-1, the IC50 was in the range of 500 to 1000 nM and the Emax was determined as 63%.
As for `C[C@@]1(F)COCc2c(F)cc(C(=O)NCc3cc4nc(-c5ccccc5)ccc4cn3)cc21` [Compound 428], at BRM, the “BRM Max % Inhibition” value was 97% and the IC50 lay in the range of 0.1 to 0.5 µM. Also, at BRG-1, the IC50 lay within 500 to 1000 nM and the Emax is 65%.
Taken in the same sequence, the figures for `CNC(=O)c1cc(-c2ccc3cnc(CNC(=O)c4ccc5c(c4)[C@](C)(C#N)COC5)cc3n2)ccn1` [Compound 450] were 96%, 0.1 to 0.5 µM, 500 to 1000 nM and 73%.
For the compound `C[C@@]1(C#N)COCc2ccc(C(=O)NCc3cc4nc(-c5ccnc([C@H]6CC6(F)F)n5)ccc4cn3)cc21` [Compound 217], on BRM, the “BRM Max % Inhibition” value was found to be 98% and the IC50 is less than 0.1 µM. Also, on BRG-1, the IC50 was in the range of 500 to 1000 nM and the Emax came to 79%.
As for `C[C@@]1(F)COCc2c(F)cc(C(=O)NCc3cc4cc(-c5cncc(N6CCC6)n5)ccc4cn3)cc21` [Compound 269], at BRM, the “BRM Max % Inhibition” value is reported as 104% and the IC50 was less than 0.1 µM. On BRG-1, the IC50 is 100 to 500 nM and the Emax came to 97%.
For the compound `C[C@@]1(C#N)COCc2ccc(C(=O)NCc3cc4nc(-c5cc(F)cc(N6CCC6)c5)ccc4cn3)cc21` [Compound 95], at BRM, the “BRM Max % Inhibition” value is reported as 99% and the IC50 is less than 0.1 µM. In addition, at BRG-1, the IC50 is 100 to 500 nM and the Emax was 93%.
Turning to `COc1cncc(-c2nc3cc(CNC(=O)c4ccc5c(c4)[C@](C)(C#N)COC5)ncc3s2)n1` [Compound 344], at BRM, the “BRM Max % Inhibition” value came out at 94% and the IC50 is 0.1 to 0.5 µM. Also, at BRG-1, the 50% inhibitory concentration (IC50) is 500 to 1000 nM and the Emax stood at 57%.
`C[C@@]1(C#N)COCc2ccc(C(=O)NCc3cc4nc(-c5cnc(N6CCC6)cn5)ccc4cn3)cc21` [Compound 414]: on BRM, the “BRM Max % Inhibition” value amounted to 91% and the IC50 fell in the range of 0.1 to 0.5 µM. For the same compound, at BRG-1, the IC50 fell in the range of 500 to 1000 nM and the Emax came to 67%.
With `Cn1ccc2ccc(-c3ccc4cnc(CNC(=O)c5ccc6c(c5)[C@](C)(C#N)COC6)cc4n3)cc2c1=O` [Compound 452], on BRM, the “BRM Max % Inhibition” value is listed as 97% and the IC50 was less than 0.1 µM. In addition, at BRG-1, the IC50 is 100 to 500 nM and the Emax stood at 98%.
Taken in the same sequence, the figures for `C[C@@]1(C#N)COCc2ccc(C(=O)NCc3cc4nc(-c5cncc(C(F)F)n5)ccc4cn3)cc21` [Compound 355] were 93%, 0.1 to 0.5 µM, 500 to 1000 nM and 74%.
Take `Cn1ccc2c(-c3ccc4cnc(CNC(=O)c5ccc6c(c5)[C@](C)(C#N)COC6)cc4n3)cccc21` [Compound 179]: on BRM, the “BRM Max % Inhibition” value was 99% and the IC50 was less than 0.1 µM. Further, at BRG-1, the IC50 was 100 to 500 nM and the Emax came to 96%.
For `CC(C)n1ccc2c(-c3ccc4cnc(CNC(=O)c5ccc6c(c5)[C@](C)(C#N)COC6)cc4n3)cccc21` [Compound 174] the same measures were 98%, less than 0.1 µM, 100 to 500 nM and 95%.
For `C[C@@]1(C#N)COCc2ccc(C(=O)NCc3cc4nc(N5Cc6ccccc6C5=O)ccc4cn3)cc21` [Compound 303] the same measures were 96%, 0.1 to 0.5 µM, 100 to 500 nM and 87%.
In the case of `Cn1ncc2ccc(-c3ccc4cnc(CNC(=O)c5ccc6c(c5)[C@](C)(C#N)COC6)cc4n3)cc21` [Compound 110], on BRM, the “BRM Max % Inhibition” value was 99% and the IC50 was less than 0.1 µM. On BRG-1, the IC50 lay in the range of 500 to 1000 nM and the Emax was 86%.
